Consider three compounds from paper PMC5452050 (ACS Omega, 2017).

For orientation: Kd means the free concentration of one partner at which half of the binding sites on the other are occupied at equilibrium, for simple one-to-one binding.

Numbering of substitutions follows the chain as printed.

Holding throughout (experiment): Kd determination
Common to all, as to assay type: binding

In one assay the target is T1, FLT3 (D835V) (Homo sapiens, UniProt P36888, D835V).
T1 sequence (P36888 27-993 D835V): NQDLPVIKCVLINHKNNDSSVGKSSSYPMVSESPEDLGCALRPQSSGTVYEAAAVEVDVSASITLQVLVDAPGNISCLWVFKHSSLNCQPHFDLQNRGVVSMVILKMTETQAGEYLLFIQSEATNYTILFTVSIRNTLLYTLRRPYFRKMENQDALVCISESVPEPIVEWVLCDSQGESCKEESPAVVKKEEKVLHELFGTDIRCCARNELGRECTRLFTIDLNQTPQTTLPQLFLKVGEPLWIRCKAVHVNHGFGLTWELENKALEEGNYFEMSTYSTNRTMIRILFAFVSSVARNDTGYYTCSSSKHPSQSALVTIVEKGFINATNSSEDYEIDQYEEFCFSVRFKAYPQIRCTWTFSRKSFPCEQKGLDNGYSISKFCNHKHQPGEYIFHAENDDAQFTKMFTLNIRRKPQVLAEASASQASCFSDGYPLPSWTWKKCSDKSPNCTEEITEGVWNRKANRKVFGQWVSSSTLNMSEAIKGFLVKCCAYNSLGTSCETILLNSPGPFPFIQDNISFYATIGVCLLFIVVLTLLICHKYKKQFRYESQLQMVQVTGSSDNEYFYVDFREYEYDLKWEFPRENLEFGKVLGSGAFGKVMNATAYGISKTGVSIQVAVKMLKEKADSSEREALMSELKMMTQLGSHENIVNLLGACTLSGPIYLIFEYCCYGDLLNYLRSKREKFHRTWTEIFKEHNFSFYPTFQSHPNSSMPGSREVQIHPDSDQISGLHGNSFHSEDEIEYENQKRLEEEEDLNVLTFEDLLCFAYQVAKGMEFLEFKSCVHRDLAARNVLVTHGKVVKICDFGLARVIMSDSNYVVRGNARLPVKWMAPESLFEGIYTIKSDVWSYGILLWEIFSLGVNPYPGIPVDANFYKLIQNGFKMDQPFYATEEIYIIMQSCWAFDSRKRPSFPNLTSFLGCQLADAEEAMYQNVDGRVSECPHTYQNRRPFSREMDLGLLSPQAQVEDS

For a further assay, the target named is T2, FLT3 (D835Y) (Homo sapiens, UniProt P36888, D835Y).
T2 sequence (P36888 27-993 D835Y): T1 sequence (P36888 27-993 D835V) with V809Y

For a further assay, the target named is T3, FLT3 (ITD, D835V) (Homo sapiens, UniProt P36888, D835V/ITD).
T3 sequence (P36888 564-993 D835V): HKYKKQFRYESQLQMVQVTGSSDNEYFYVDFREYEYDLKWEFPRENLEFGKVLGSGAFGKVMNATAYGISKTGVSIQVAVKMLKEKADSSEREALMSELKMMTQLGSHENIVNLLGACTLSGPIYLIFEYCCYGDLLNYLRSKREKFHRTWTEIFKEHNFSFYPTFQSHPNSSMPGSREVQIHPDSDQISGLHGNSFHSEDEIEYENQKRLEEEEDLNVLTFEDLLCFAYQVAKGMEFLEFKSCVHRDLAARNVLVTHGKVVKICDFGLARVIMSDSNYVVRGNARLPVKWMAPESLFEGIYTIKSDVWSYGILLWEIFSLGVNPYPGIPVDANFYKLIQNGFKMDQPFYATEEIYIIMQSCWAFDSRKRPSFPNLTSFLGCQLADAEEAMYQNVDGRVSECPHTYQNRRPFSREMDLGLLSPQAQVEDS

As for `CC(C)Nc1ccnc(Nc2ccccc2-c2ccccc2)n1` [Compound 6a, N^2-([1,1′-Biphenyl]-2-yl)-N^4-isopropylpyrimidine-2,4-diamine], the Kd on FLT3 (D835V) is greater than 10000 nM; at FLT3 (D835Y) it was greater than 10000 nM; on FLT3 (ITD, D835V), greater than 10000 nM.

Consider `CC(C)Nc1ccnc(Nc2cccc(-c3cccnc3)c2)n1` [Compound 5e, N^4-Isopropyl-N^2-(3-(pyridin-3-yl)phenyl)pyrimidine-2,4-diamine], for which the Kd was 0.8 nM at FLT3 (D835V); 0.59 nM at FLT3 (D835Y); 0.36 nM at FLT3 (ITD, D835V).

For the compound `c1cncc(-c2cccc(Nc3nccc(NC4CCCCC4)n3)c2)c1` [Compound 1, N^4-Cyclohexyl-N^2-(3-(pyridin-3-yl)phenyl)pyrimidine-2,4-diamine], the equilibrium dissociation constant (Kd) at FLT3 (D835V) turned out to be 7.7 nM; on FLT3 (D835Y) it was 13 nM; on FLT3 (ITD, D835V), 7.2 nM.
